Measured values taken from patent US11306064B2, “Benzothia(di)azepine compounds and their use as bile acid modulators” (Albireo AB, priority 2018, dated 2022).
pIC50: −log10 of the molar value.

Experiments:
Format in all cases: cell-based
[1] = test system: HepaRG cells; experiment: HepaRG-based assay: 3H-taurocholic acid uptake in differentiated HepaRG cells; settings: 0.3 μM 3H-taurocholic acid and 7.5 μM cold taurocholic acid, 30 minutes
Experimental: HepaRG-Based Assay Protocol
A cryopreserved vial of differentiated HepaRG cells (Biopredic International HPR116080) was thawed in HepaRG Thawing/Plating/General Purpose Medium (Biopredic International ADD670C) supplemented with 200 mM Glutamax (Gibco 35050061) following the protocol provided by Biopredic International. 70,000 cells per well were seeded in 96-wells plate (Corning CLS3809) in 100 μL of HepaRG Thawing/Plating/General Purpose Medium supplemented with 200 mM Glutamax and incubated at 37° C. in 5% CO2 for 24 hours. Post incubation, the seeding media was replaced by HepaRG Maintenance/Metabolism Medium (Biopredic International ADD620C) and incubated for 6 days, with fresh HepaRG Maintenance/Metabolism Medium replenishment every 48 hours. After 7 days incubation post seeding, incubation media was decanted from the wells and cells were washed two times with 250 μL of William's E Basal Media (Gibco 12551032). After decanting William's E Basal Media each time, plates were tapped against paper towel to ensure maximum removal of residual media.
Incubation mix was prepared by adding test inhibitor dilutions (3-fold serial dilution in DMSO (Sigma D2650)) in William's E media (basal) containing 0.3 μM 3H-taurocholic acid (ARC ART-1368) and 7.5 μM cold taurocholic acid (Sigma T4009) (maintaining 0.2% final DMSO concentration). 50 μl of incubation mix containing test inhibitors was then added to the wells (in duplicate) and the plates were incubated for 30 minutes in 5% CO2 incubator at 37° C. After incubation, the reaction was stopped by keeping the plates on ice water mix for 2-3 minutes and then the incubation mix was aspirated completely from the wells. The wells were washed two times with 250 μL of chilled unlabelled 1 mM taurocholic acid dissolved in HEPES (Gibco 15630080)-buffered (10 mM) HBSS (Gibco 14175079) (pH 7.4). The plates were tapped against a paper towel after every wash to ensure maximum removal of blocking buffer.
100 μL of MicroScint-20 (PerkinElmer 6013621) was added to the wells and kept overnight at room temperature before reading the plates in TopCount NXT™ Microplate Scintillation and Luminescence Counter from PerkinElmer under 3H Test protocol (set at 120 seconds reading time per well, with normal plate orientation).
Preparation of Test Compound Dilutions
All test compounds were provided in powder form at room temperature. 10 mM DMSO stocks of the test compounds were prepared, aliquoted and stored at −20° C. From the 10 mM DMSO stock of the compounds, a 3-fold serial dilution in DMSO was prepared to get a total of 10 dilutions of the test compounds. 0.5 μL of this dilution in DMSO was added to 250 μL of FBS-free basal media containing 3H-taurocholic acid and cold taurocholic acid to prepare the incubation mixture.

[2] = molecular target: T1, Human LBAT (Homo sapiens, UniProt Q14973); experiment: LBAT (h/m) assay: 3H-taurocholic acid uptake in human LBAT-overexpressing cells; settings: 0.3 μM 3H-taurocholic acid and 7.5 μM cold taurocholic acid, 20 minutes, read-out: hLBAT IC50
T1 construct: expressed in transfected cells; kept under Geneticin selection
T1 sequence (Q14973 1-349): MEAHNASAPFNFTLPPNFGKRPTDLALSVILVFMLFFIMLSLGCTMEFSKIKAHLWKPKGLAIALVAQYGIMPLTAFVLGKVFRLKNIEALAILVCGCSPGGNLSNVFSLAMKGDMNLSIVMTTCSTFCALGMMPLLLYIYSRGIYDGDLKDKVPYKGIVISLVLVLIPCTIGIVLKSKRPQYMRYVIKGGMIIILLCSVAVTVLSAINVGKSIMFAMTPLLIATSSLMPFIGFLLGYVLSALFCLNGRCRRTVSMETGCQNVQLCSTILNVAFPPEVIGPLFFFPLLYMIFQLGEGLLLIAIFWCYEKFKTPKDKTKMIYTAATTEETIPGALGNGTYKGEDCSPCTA
Method in brief: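 LBAT-overexpressing cells, serum-free MEM-alpha, 20 min at 37° C with inhibitor (3-fold, 10-point) plus 0.3 μM 3H-taurocholic acid and cold taurocholic acid (7.5 μM human; 25 μM mouse), 0.2% DMSO. Stopped on ice, washed with 1 mM unlabelled taurocholate; uptake by scintillation counting.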

[3] = molecular target: T2, Human ASBT (Homo sapiens, UniProt Q12908); experiment: ASBT (h/m) assay: 3H-taurocholic acid uptake in human ASBT-overexpressing cells; settings: 0.25 μM 3H-taurocholic acid and 5 μM cold taurocholic acid, 20 minutes, read-out: hASBT IC50
T2 construct: expressed in transfected cells; kept under Puromycin selection
T2 sequence (Q12908 1-348): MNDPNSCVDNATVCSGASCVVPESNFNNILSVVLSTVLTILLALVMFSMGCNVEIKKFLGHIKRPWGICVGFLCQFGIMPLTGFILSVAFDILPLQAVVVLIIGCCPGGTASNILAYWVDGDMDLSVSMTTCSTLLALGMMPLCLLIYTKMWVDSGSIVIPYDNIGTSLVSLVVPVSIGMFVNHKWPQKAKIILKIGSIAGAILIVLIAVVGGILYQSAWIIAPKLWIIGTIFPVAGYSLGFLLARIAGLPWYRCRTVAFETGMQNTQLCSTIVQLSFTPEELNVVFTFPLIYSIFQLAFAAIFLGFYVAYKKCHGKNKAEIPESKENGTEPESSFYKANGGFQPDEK
Method in brief: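 ASBT-overexpressing cells, seeded 48 h earlier, took up 0.25 µM 3H-taurocholic acid plus 5 µM cold taurocholate for 20 min at 37 °C with inhibitor (10-point 3-fold series, top 10 µM, 0.2% DMSO). Ice stop, washes with cold 1 mM taurocholate in HEPES-HBSS pH 7.4, scintillation counting.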

pIC50 ([1]; Homo sapiens, HepaRG)	pIC50 [2]	pIC50 [3]	pIC50 [1]	SMILES
6.24	7.03	6.66	–	CCCCC1(CC)CN(c2ccccc2)c2cc(Cl)c(O/C=C/C(=O)O)cc2S(=O)(=O)C1 (racemic) [Example 49, (E)-3-((3-butyl-7-chloro-3-ethyl-1,1-dioxido-5-phenyl-2,3,4,5-tetrahydro-1,5-benzothiazepin-8-yl)oxy)acrylic Acid]
6.45	8.00	7.46	–	CCCCC1(CC)CN(c2ccccc2)c2cc(Br)c(O/C=C(\F)C(=O)O)cc2S(=O)(=O)C1 (racemic) [Example 63, (Z)-3-((7-bromo-3-butyl-3-ethyl-1,1-dioxido-5-phenyl-2,3,4,5-tetrahydro-1,5-benzothiazepin-8-yl)oxy)-2-fluoroacrylic Acid]
6.25	7.51	7.55	–	CCCCC1(CC)CN(c2ccccc2)c2cc(SC)c(O/C=C(\F)C(=O)O)cc2S(=O)(=O)N1 (racemic) [Example 84, (Z)-3-((3-butyl-3-ethyl-7-(methylthio)-1,1-dioxido-5-phenyl-2,3,4,5-tetrahydro-1,2,5-benzothiadiazepin-8-yl)oxy)-2-fluoroacrylic Acid]
5.94	7.15	5.65	–	CCCCC1(CC)CN(c2ccccc2)c2cc(SC)c(O/C=C/C(=O)O)cc2S(=O)(=O)N1C (racemic) [Example 88, (E)-3-((3-butyl-3-ethyl-2-methyl-7-(methylthio)-1,1-dioxido-5-phenyl-2,3,4,5-tetrahydro-1,2,5-benzothiadiazepin-8-yl)oxy)acrylic Acid]
6.17	7.66	6.54	–	CCCCC1(CC)CN(c2ccccc2)c2cc(SC)c(O/C=C(\F)C(=O)O)cc2S(=O)(=O)N1C (racemic) [Example 98, (Z)-3-((3-butyl-3-ethyl-2-methyl-7-(methylthio)-1,1-dioxido-5-phenyl-2,3,4,5-tetrahydro-1,2,5-benzothiadiazepin-8-yl)oxy)-2-fluoroacrylic Acid]
6.42	8.00	6.66	–	CCCCC1(CC)CN(c2ccccc2)c2cc(SC)c(O/C=C(\F)C(=O)O)cc2S(=O)(=O)C1 (single isomer, unassigned) [Example 42, (Z)-3-((3-butyl-3-ethyl-7-(methylthio)-1,1-dioxido-5-phenyl-2,3,4,5-tetrahydro-1,5-benzothiazepin-8-yl)oxy)-2-fluoroacrylic acid]
6.44	7.60	6.47	–	CCCCC1(CC)CN(c2ccccc2)c2cc(Cl)c(O/C=C(\F)C(=O)O)cc2S(=O)(=O)C1 (single isomer, unassigned) [Example 47, (Z)-3-((3-butyl-7-chloro-3-ethyl-1,1-dioxido-5-phenyl-2,3,4,5-tetrahydro-1,5-benzothiazepin-8-yl)oxy)-2-fluoroacrylic acid]
6.47	7.05	7.11	–	CCCCC1(CC)CN(c2ccccc2)c2cc(Cl)c(O/C=C/C(=O)O)cc2S(=O)(=O)C1 (single isomer, unassigned) [Example 50, (E)-3-((3-butyl-7-chloro-3-ethyl-1,1-dioxido-5-phenyl-2,3,4,5-tetrahydro-1,5-benzothiazepin-8-yl)oxy)acrylic acid]
5.94	6.86	6.44	–	CCCCC1(CC)CN(c2ccccc2)c2cc(I)c(O/C=C/C(=O)O)cc2S(=O)(=O)C1 (single isomer, unassigned) [Example 57, (E)-3-((3-butyl-3-ethyl-7-iodo-1,1-dioxido-5-phenyl-2,3,4,5-tetrahydro-1,5-benzothiazepin-8-yl)oxy)acrylic acid]
–	7.08	7.62	5.82	CCCCC1(CC)CN(c2ccccc2)c2cc(I)c(O/C=C/C(=O)O)cc2S(=O)(=O)C1 (single isomer, unassigned) [Example 58, (E)-3-((3-butyl-3-ethyl-7-iodo-1,1-dioxido-5-phenyl-2,3,4,5-tetrahydro-1,5-benzothiazepin-8-yl)oxy)acrylic acid]
6.34	7.55	6.28	–	CCCC[C@]1(CC)CN(c2ccccc2)c2cc(Br)c(O/C=C(\F)C(=O)O)cc2S(=O)(=O)C1 (single isomer, unassigned) [Example 64]
6.58	7.70	7.57	–	CCCC[C@@]1(CC)CN(c2ccccc2)c2cc(Br)c(O/C=C(\F)C(=O)O)cc2S(=O)(=O)C1 (single isomer, unassigned) [Example 65]
5.27	6.53	7.62	–	CCCC[C@@]1(CC)CN(c2ccccc2)c2cc(SC)c(O/C=C/C(=O)O)cc2S(=O)(=O)N1 (single isomer, unassigned) [Example 77]
5.96	7.15	8.15	–	CCCC[C@@]1(CC)CN(c2ccccc2)c2cc(SC)c(O/C=C(\F)C(=O)O)cc2S(=O)(=O)N1 (single isomer, unassigned) [Example 85]
6.28	7.51	7.06	–	CCCC[C@]1(CC)CN(c2ccccc2)c2cc(SC)c(O/C=C(\F)C(=O)O)cc2S(=O)(=O)N1 (single isomer, unassigned) [Example 86]
5.84	7.31	6.20	–	CCCC[C@]1(CC)CN(c2ccccc2)c2cc(SC)c(O/C=C(\F)C(=O)O)cc2S(=O)(=O)N1C (single isomer, unassigned) [Example 100]
< 5.65	7.17	8.19	–	CCCC[C@@]1(CC)CN(c2ccccc2)c2cc(N(C)C)c(O/C=C(\F)C(=O)O)cc2S(=O)(=O)C1 (single isomer, unassigned) [Example 109]
< 5.18	5.85	6.45	–	CCCCC1(CCCC)CN(c2ccc(N)cc2)c2cc(SC)c(O/C=C/C(=O)O)cc2S(=O)(=O)C1 [Example 2, (E)-3-((5-(4-aminophenyl)-3,3-dibutyl-7-(methylthio)-1,1-dioxido-2,3,4,5-tetrahydro-1,5-benzothiazepin-8-yl)oxy)acrylic Acid]

SMILES	pIC50 ([1]; Homo sapiens, HepaRG)	pIC50 [2]	pIC50 [3]	pIC50 [1]
CCCCC1(CCCC)CN(c2ccc(NC(=O)OC(C)(C)C)cc2)c2cc(SC)c(O/C=C/C(=O)O)cc2S(=O)(=O)C1 [Example 3, (E)-3-((5-(4-((tert-butoxycarbonyl)amino)phenyl)-3,3-dibutyl-7-(methylthio)-1,1-dioxido-2,3,4,5-tetrahydro-1,5-benzothiazepin-8-yl)oxy)acrylic Acid]	6.05	6.75	< 5.00	–
